# From US20260015358A1, “BICYCLIC DERIVATIVES, COMPOSITIONS AND USES THEREOF” (Danatlas Pharmaceuticals Co., Ltd., priority 2023, published 2026)
# Legend:
# [1] = biological target: T1, WRN [UniPro: Q14191 (WRN_HUMAN), N500-C946] (Homo sapiens (Human), UniProt Q14191); assay: WRN ATPase assay (ADP-Glo); type: biochemical; conditions: WRN enzymatic activity assay
# [2] = biological target: T1, WRN [UniPro: Q14191 (WRN_HUMAN), N500-C946]; assay: WRN unwinding assay (FORKF DNA, fluorescence); type: biochemical; conditions: Table 14
# T1 sequence (Q14191 500-946): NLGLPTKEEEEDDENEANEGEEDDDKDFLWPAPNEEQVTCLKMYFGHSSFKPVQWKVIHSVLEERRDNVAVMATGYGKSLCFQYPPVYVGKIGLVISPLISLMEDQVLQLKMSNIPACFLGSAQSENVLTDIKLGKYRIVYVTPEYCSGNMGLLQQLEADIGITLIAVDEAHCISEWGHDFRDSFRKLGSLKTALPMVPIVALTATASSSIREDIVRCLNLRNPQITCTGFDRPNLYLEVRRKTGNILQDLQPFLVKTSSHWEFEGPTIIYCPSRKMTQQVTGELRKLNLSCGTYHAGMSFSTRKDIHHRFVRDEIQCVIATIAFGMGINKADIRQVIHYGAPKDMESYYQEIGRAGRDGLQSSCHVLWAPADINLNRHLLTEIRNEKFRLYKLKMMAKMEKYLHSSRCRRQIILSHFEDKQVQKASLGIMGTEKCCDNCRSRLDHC
IC50 [1] [nM],IC50 [2] [nM],SMILES
< 100,< 100,"CCc1c(N2CCN(C(=O)CNC(=O)N3Cc4ccncc4C3)CC2)c(=O)n2nc(C3=CCOCC3)nc2n1CC(=O)Nc1ccc(C(F)(F)F)cc1Cl [Example 192, N-(2-(4-(4-(2-((2-Chloro-4-(trifluoromethyl)phenyl)amino)-2-oxoethyl)-2-(3,6-dihydro-2H-pyran-4-yl)-5-ethyl-7-oxo-4,7-dihydro-[1,2,4]triazolo[1,5-a]pyrimidin-6-yl)piperazin-1-yl)-2-oxoethyl)-1,3-dihydro-2H-pyrrolo[3,4-c]pyridine-2-carboxamide]"
< 100,< 100,"CCc1c(N2CCN(C(=O)CNC(=O)c3ccc(F)cc3)CC2)c(=O)n2nc(C3=CCOCC3)nc2n1CC(=O)Nc1ccc(C(F)(F)F)cc1Cl [Example 98, N-(2-(4-(4-(2-((2-Chloro-4-(trifluoromethyl)phenyl)amino)-2-oxoethyl)-2-(3,6-dihydro-2H-pyran-4-yl)-5-ethyl-7-oxo-4,7-dihydro-[1,2,4]triazolo[1,5-a]pyrimidin-6-yl)piperazin-1-yl)-2-oxoethyl)-4-fluorobenzamide]"
< 100,< 100,"CCc1c(N2CCN(C(=O)C(=O)Nc3nncs3)CC2)c(=O)n2nc(C3=CCOCC3)nc2n1CC(=O)Nc1ccc(C(F)(F)F)cc1F [Example 342, 2-(4-(2-(3,6-Dihydro-2H-pyran-4-yl)-5-ethyl-4-(2-((2-fluoro-4-(trifluoromethyl)phenyl)amino)-2-oxoethyl)-7-oxo-4,7-dihydro-[1,2,4]triazolo[1,5-a]pyrimidin-6-yl)piperazin-1-yl)-2-oxo-N-(1,3,4-thiadiazol-2-yl)acetamide]"
< 100,< 100,"CCc1c(N2CCN(C(=O)CNC(=O)c3ccccc3F)CC2)c(=O)n2nc(C3=CCOCC3)nc2n1CC(=O)Nc1cnc(C(F)(F)F)s1 [Example 157, N-(2-(4-(2-(3,6-Dihydro-2H-pyran-4-yl)-5-ethyl-7-oxo-4-(2-oxo-2-((2-(trifluoromethyl)thiazol-5-yl)amino)ethyl)-4,7-dihydro-[1,2,4]triazolo[1,5-a]pyrimidin-6-yl)piperazin-1-yl)-2-oxoethyl)-2-fluorobenzamide]"
< 100,< 100,"CCc1c(N2CCN(C(=O)CNC(=O)c3cc(NC)ccc3F)CC2)c(=O)n2nc(C3=CCOCC3)nc2n1CC(=O)Nc1ccc(C(F)(F)F)cc1F [Example 215, N-(2-(4-(2-(3,6-dihydro-2H-pyran-4-yl)-5-ethyl-4-(2-((2-fluoro-4-(trifluoromethyl)phenyl)amino)-2-oxoethyl)-7-oxo-4,7-dihydro-[1,2,4]triazolo[1,5-a]pyrimidin-6-yl)piperazin-1-yl)-2-oxoethyl)-2-fluoro-5-(methylamino)benzamide]"
100 to 1000,< 100,"CCc1c(N2CCN(C(=O)CNC(=O)c3[nH]c(=O)ccc3F)CC2)c(=O)n2nc(C3=CCOCC3)nc2n1CC(=O)Nc1ccc(C(F)(F)F)cc1Cl [Example 365, N-(2-(4-(4-(2-((2-Chloro-4-(trifluoromethyl)phenyl)amino)-2-oxoethyl)-2-(3,6-dihydro-2H-pyran-4-yl)-5-ethyl-7-oxo-4,7-dihydro-[1,2,4]triazolo[1,5-a]pyrimidin-6-yl)piperazin-1-yl)-2-oxoethyl)-3-fluoro-6-oxo-1,6-dihydropyridine-2-carboxamide]"
< 100,< 100,"CCc1c(N2CCN(C(=O)CNC(=O)Nc3ccccc3C#N)CC2)c(=O)n2nc(C3=CCOCC3)nc2n1CC(=O)Nc1ccc(C(F)(F)F)cc1Cl [Example 187, N-(2-Chloro-4-(trifluoromethyl)phenyl)-2-(6-(4-(((2-cyanophenyl)carbamoyl)glycyl)piperazin-1-yl)-2-(3,6-dihydro-2H-pyran-4-yl)-5-ethyl-7-oxo-[1,2,4]triazolo[1,5-a]pyrimidin-4(7H)-yl)acetamide]"
< 100,< 100,"CCc1c(N2CCN(C(=O)CNC(=O)c3ccns3)CC2)c(=O)n2nc(C3=CCOCC3)nc2n1CC(=O)Nc1ccc(C(F)(F)F)cc1F [Example 219, N-(2-(4-(2-(3,6-Dihydro-2H-pyran-4-yl)-5-ethyl-4-(2-((2-fluoro-4-(trifluoromethyl)phenyl)amino)-2-oxoethyl)-7-oxo-4,7-dihydro-[1,2,4]triazolo[1,5-a]pyrimidin-6-yl)piperazin-1-yl)-2-oxoethyl)isothiazole-5-carboxamide]"
< 100,< 100,"CCc1c(N2CCN(C(=O)CNC(=O)c3ccccc3F)CC2)c(=O)n2nc(C3=CCOCC3)nc2n1CC(=O)Nc1ccc(F)cc1F [Example 150, N-(2-(4-(4-(2-((2,4-Difluorophenyl)amino)-2-oxoethyl)-2-(3,6-dihydro-2H-pyran-4-yl)-5-ethyl-7-oxo-4,7-dihydro-[1,2,4]triazolo[1,5-a]pyrimidin-6-yl)piperazin-1-yl)-2-oxoethyl)-2-fluorobenzamide]"
< 100,< 100,"CCc1c(N2CCN(C(=O)c3cnn4ccc(C)c4c3O)CC2)c(=O)n2nc(C3=CCOCC3)nc2n1CC(=O)Nc1ccc(C(F)(F)F)cc1Cl [Example 303, N-(2-Chloro-4-(trifluoromethyl)phenyl)-2-(2-(3,6-dihydro-2H-pyran-4-yl)-5-ethyl-6-(4-(4-hydroxy-5-methylpyrrolo[1,2-b]pyridazine-3-carbonyl)piperazin-1-yl)-7-oxo-[1,2,4]triazolo[1,5-a]pyrimidin-4(7H)-yl)acetamide]"
100 to 1000,100 to 1000,"CCc1c(N2CCN(C(=O)CNC(=O)c3ccccc3)CC2)c(=O)n2nc(N3CC4(COC4)C3)nc2n1CC(=O)Nc1ccc(C(F)(F)F)cc1Cl [Example 235, N-(2-(4-(4-(2-((2-Chloro-4-(trifluoromethyl)phenyl)amino)-2-oxoethyl)-5-ethyl-7-oxo-2-(2-oxa-6-azaspiro[3.3]heptan-6-yl)-4,7-dihydro-[1,2,4]triazolo[1,5-a]pyrimidin-6-yl)piperazin-1-yl)-2-oxoethyl)benzamide]"
< 100,< 100,"CCc1c(N2CCN(C(=O)CNC(=O)c3ccc(F)s3)CC2)c(=O)n2nc(C3=CCOCC3)nc2n1CC(=O)Nc1ccc(C(F)(F)F)cc1Cl [Example 375, N-(2-(4-(4-(2-((2-Chloro-4-(trifluoromethyl)phenyl)amino)-2-oxoethyl)-2-(3,6-dihydro-2H-pyran-4-yl)-5-ethyl-7-oxo-4,7-dihydro-[1,2,4]triazolo[1,5-a]pyrimidin-6-yl)piperazin-1-yl)-2-oxoethyl)-5-fluorothiophene-2-carboxamide]"
< 100,< 100,"CCc1c(N2CCN(C(=O)CNC(=O)c3cccc(F)c3N)CC2)c(=O)n2nc(N3CCOCC3)nc2n1CC(=O)Nc1ccc(C(F)(F)F)cc1F [Example 255, 2-Amino-N-(2-(4-(5-Ethyl-4-(2-((2-fluoro-4-(trifluoromethyl)phenyl)amino)-2-oxoethyl)-2-morpholino-7-oxo-4,7-dihydro-[1,2,4]triazolo[1,5-a]pyrimidin-6-yl)piperazin-1-yl)-2-oxoethyl)-3-fluorobenzamide]"
100 to 1000,< 100,"CCc1c(N2CCN(C(=O)C(=O)Nc3cscn3)CC2)c(=O)n2nc(C3=CCOCC3)nc2n1CC(=O)Nc1ccc(C(F)(F)F)cc1Cl [Example 335, 2-(4-(4-(2-((2-Chloro-4-(trifluoromethyl)phenyl)amino)-2-oxoethyl)-2-(3,6-dihydro-2H-pyran-4-yl)-5-ethyl-7-oxo-4,7-dihydro-[1,2,4]triazolo[1,5-a]pyrimidin-6-yl)piperazin-1-yl)-2-oxo-N-(thiazol-4-yl)acetamide]"
> 1000,> 1000,"CCc1c(N2CCN(C(=O)C3CCC(=O)N3)CC2)c(=O)n2nc(C3=CCOCC3)nc2n1CC(=O)Nc1ccc(C(F)(F)F)cc1Cl (centres unmarked) [Example 66, N-(2-Chloro-4-(trifluoromethyl)phenyl)-2-(2-(3,6-dihydro-2H-pyran-4-yl)-5-ethyl-7-oxo-6-(4-(5-oxopyrrolidine-2-carbonyl)piperazin-1-yl)-[1,2,4]triazolo[1,5-a]pyrimidin-4(7H)-yl)acetamide]"
100 to 1000,> 1000,"CCc1c(N2CCN(C(=O)CNC(=O)c3c(O)cc(C)oc3=O)CC2)c(=O)n2nc(C3=CCOCC3)nc2n1CC(=O)Nc1ccc(C(F)(F)F)cc1Cl [Example 295, N-(2-(4-(4-(2-((2-Chloro-4-(trifluoromethyl)phenyl)amino)-2-oxoethyl)-2-(3,6-dihydro-2H-pyran-4-yl)-5-ethyl-7-oxo-4,7-dihydro-[1,2,4]triazolo[1,5-a]pyrimidin-6-yl)piperazin-1-yl)-2-oxoethyl)-4-hydroxy-6-methyl-2-oxo-2H-pyran-3-carboxamide]"
< 100,< 100,"CCc1c(N2CCN(C(=O)CNC(=O)c3ncnc(C)c3O)CC2)c(=O)n2nc(N3CCOCC3)nc2n1CC(=O)Nc1ccc(C(F)(F)F)cc1Cl [Example 377, N-(2-(4-(4-(2-((2-Chloro-4-(trifluoromethyl)phenyl)amino)-2-oxoethyl)-5-ethyl-2-morpholino-7-oxo-4,7-dihydro-[1,2,4]triazolo[1,5-a]pyrimidin-6-yl)piperazin-1-yl)-2-oxoethyl)-5-hydroxy-6-methylpyrimidine-4-carboxamide]"
< 100,< 100,"CCc1c(N2CCN(C(=O)c3nnccc3O)CC2)c(=O)n2nc(C3=CCOCC3)nc2n1CC(=O)Nc1ccc(C(F)(F)F)cc1Cl [Example 82, N-(2-Chloro-4-(trifluoromethyl)phenyl)-2-(2-(3,6-dihydro-2H-pyran-4-yl)-5-ethyl-6-(4-(4-hydroxypyridazine-3-carbonyl)piperazin-1-yl)-7-oxo-[1,2,4]triazolo[1,5-a]pyrimidin-4(7H)-yl)acetamide]"
100 to 1000,< 100,"CCc1c(N2CCN(C(=O)CNC(=O)c3ccccc3F)CC2)c(=O)n2nc(C3=CCOCC3)nc2n1CC(=O)Nc1cc(F)c(C(F)(F)F)cc1C [Example 144, N-(2-(4-(2-(3,6-Dihydro-2H-pyran-4-yl)-5-ethyl-4-(2-((5-fluoro-2-methyl-4-(trifluoromethyl)phenyl)amino)-2-oxoethyl)-7-oxo-4,7-dihydro-[1,2,4]triazolo[1,5-a]pyrimidin-6-yl)piperazin-1-yl)-2-oxoethyl)-2-fluorobenzamide]"
